This note sets out measurements from PubChem BioAssay AID330 (DTP/NCI, 2004).

This assay concerns P388 leukemia ip, CD2F1 mice, survival T/C. The assay is described as follows: NCI In Vivo Anticancer Drug Screen. Data for tumor model P388 Leukemia (intraperitoneal) in CD2F1 (CDF1) mice. The conditions noted are these: endpoint: median survival time, higher = longer survival. Put shortly: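 Mice carrying the transplanted tumor received test compound or vehicle. Survival was recorded in each group, and the value is the treated-group measurement divided by that of the vehicle-treated control group.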

Where [1] appears, read: dose: 60.0 mg/kg/injection, schedule: Q01DX005 (ip), vehicle: saline with Tween-80.
The mark [2] stands for this setting: dose: 120.0 mg/kg/injection, schedule: Q01DX005 (ip), vehicle: saline with Tween-80.
The mark [3] stands for this setting: dose: 240.0 mg/kg/injection, schedule: Q01DX005 (ip), vehicle: saline with Tween-80.
Setting [4] is: dose: 50.0 mg/kg/injection, schedule: Q01DX009 (ip), vehicle: saline with Tween-80.
[5] abbreviates: dose: 100.0 mg/kg/injection, schedule: Q01DX009 (ip), vehicle: saline with Tween-80.
Setting [6] is: dose: 200.0 mg/kg/injection, schedule: Q01DX009 (ip), vehicle: saline with Tween-80.

Several values for one entry are separate records, joined by “and”; a condition that tells them apart may be missing. Identical values can stand only once. Inconclusive results and toxic doses are left out.

On to `CC[C@]1(O)C[C@H]2CN(CCc3c([nH]c4ccccc34)[C@@](C(=O)OC)(c3cc4c(cc3OC)N(C)[C@H]3[C@@](O)(C(=O)OC)[C@H](OC(C)=O)[C@]5(CC)C=CCN6CC[C@]43[C@@H]65)C2)C1`, for which the T/C was 100 % of control (dose: 0.03 mg/kg/injection, schedule: Q04DX003 (ip), vehicle: water); 172 % of control (dose: 0.13 mg/kg/injection, schedule: Q01DX005 (ip), vehicle: saline); 162 % of control (dose: 0.13 mg/kg/injection, schedule: Q01DX009 (ip), vehicle: saline); 160 % of control (dose: 0.16 mg/kg/injection, schedule: Q01DX009 (ip), vehicle: saline); 202 % of control (dose: 0.25 mg/kg/injection, schedule: Q01DX005 (ip), vehicle: saline); 162 % of control (dose: 0.38 mg/kg/injection, schedule: Q04DX003 (ip), vehicle: saline). In addition, the T/C is 160 % of control (dose: 0.4 mg/kg/injection, schedule: Q04DX003 (ip), vehicle: water); 168 % of control (dose: 0.45 mg/kg/injection, schedule: Q01DX009 (ip), vehicle: saline); 150 % of control (dose: 0.5 mg/kg/injection, schedule: Q01DX001 (ip), vehicle: saline); 163 % of control and 177 % of control (dose: 0.5 mg/kg/injection, schedule: Q01DX005 (ip), vehicle: saline); 169 % of control (dose: 0.5 mg/kg/injection, schedule: Q04DX003 (ip), vehicle: saline); 157 % of control (dose: 0.52 mg/kg/injection, schedule: Q04DX002 (ip), vehicle: saline). Moreover, the T/C is 157 % of control and 248 % of control (dose: 0.63 mg/kg/injection, schedule: Q04DX003 (ip), vehicle: saline); 179 % of control (dose: 0.64 mg/kg/injection, schedule: Q04DX002 (ip), vehicle: saline); 173 % of control (dose: 0.65 mg/kg/injection, schedule: Q04DX003 (ip), vehicle: saline); 185 % of control (dose: 0.67 mg/kg/injection, schedule: Q04DX003 (ip), vehicle: saline); 91 % of control (dose: 0.75 mg/kg/injection, schedule: Q01DX009 (ip), vehicle: saline); 198 % of control (dose: 0.75 mg/kg/injection, schedule: Q04DX003 (ip), vehicle: saline). Besides, the T/C was 90 % of control (dose: 0.8 mg/kg/injection, schedule: Q01DX009 (ip), vehicle: saline); 173 % of control and 185 % of control (dose: 0.8 mg/kg/injection, schedule: Q04DX003 (ip), vehicle: water); 196 % of control (dose: 0.86 mg/kg/injection, schedule: Q04DX002 (ip), vehicle: saline); 163 % of control (dose: 1.0 mg/kg/injection, schedule: Q01DX001 (ip), vehicle: Klucel (hydroxypropylcellulose) (HPC)); 162 % of control (dose: 1.0 mg/kg/injection, schedule: Q01DX001 (ip), vehicle: saline); 150 % of control (dose: 1.0 mg/kg/injection, schedule: Q04DX003 (ip), vehicle: water). Besides, the T/C by setting is: (dose: 1.08 mg/kg/injection, schedule: Q04DX002 (ip), vehicle: saline) 199 % of control; (dose: 1.08 mg/kg/injection, schedule: Q04DX003 (ip), vehicle: saline) 186 % of control and 201 % of control; (dose: 1.2 mg/kg/injection, schedule: Q04DX003 (ip), vehicle: saline) 189 % of control; (dose: 1.44 mg/kg/injection, schedule: Q04DX002 (ip), vehicle: saline) 197 % of control and 198 % of control; (dose: 1.44 mg/kg/injection, schedule: Q04DX003 (ip), vehicle: saline) 97 % of control; (dose: 1.6 mg/kg/injection, schedule: Q04DX003 (ip), vehicle: water) 228 % of control and 229 % of control and 234 % of control. Moreover, the T/C is, setting by setting: (dose: 1.8 mg/kg/injection, schedule: Q04DX002 (ip), vehicle: saline) 218 % of control; (dose: 1.8 mg/kg/injection, schedule: Q04DX003 (ip), vehicle: saline) 213 % of control and 220 % of control; (dose: 2.0 mg/kg/injection, schedule: Q01DX001 (ip), vehicle: clinical formulation) 150 % of control; (dose: 2.0 mg/kg/injection, schedule: Q04DX003 (oral), vehicle: water) 110 % of control; (dose: 2.4 mg/kg/injection, schedule: Q04DX002 (ip), vehicle: saline) 376 % of control; (dose: 3.2 mg/kg/injection, schedule: Q04DX003 (ip), vehicle: water) 100 % of control. The T/C was 240 % of control (dose: 3.33 mg/kg/injection, schedule: Q04DX003 (ip), vehicle: saline); 216 % of control (dose: 4.0 mg/kg/injection, schedule: Q01DX001 (ip), vehicle: Klucel (hydroxypropylcellulose) (HPC)); 171 % of control and 177 % of control (dose: 4.0 mg/kg/injection, schedule: Q01DX001 (ip), vehicle: clinical formulation); 162 % of control and 200 % of control (dose: 4.0 mg/kg/injection, schedule: Q01DX001 (ip), vehicle: saline); 177 % of control (dose: 8.0 mg/kg/injection, schedule: Q01DX001 (ip), vehicle: Klucel (hydroxypropylcellulose) (HPC)); 190 % of control (dose: 8.0 mg/kg/injection, schedule: Q01DX001 (ip), vehicle: clinical formulation). Also, the T/C reads like this: (dose: 125.0 micrograms/kg/injection, schedule: Q01DX009 (ip), vehicle: water) 172 % of control; (dose: 250.0 micrograms/kg/injection, schedule: Q01DX009 (ip), vehicle: water) 164 % of control; (dose: 500.0 micrograms/kg/injection, schedule: Q01DX009 (ip), vehicle: water) 92 % of control.

`CCOC(=O)C(C#N)C(=N)C1CC(C)OC1=O` (centres undefined): the T/C is 100 % of control under setting [1], 100 % of control under setting [2] and 98 % of control under setting [3].

Turning to `CCCCN(CCCC)CC(N=O)c1cc(-c2ccc(Cl)c(Cl)c2)nc2c(Cl)cc(Cl)cc12` (centres undefined), the T/C runs as follows: (dose: 50.0 mg/kg/injection, schedule: Q01DX005 (ip), vehicle: saline with Tween-80) 108 % of control; (dose: 100.0 mg/kg/injection, schedule: Q01DX005 (ip), vehicle: saline with Tween-80) 111 % of control; (dose: 200.0 mg/kg/injection, schedule: Q01DX005 (ip), vehicle: saline with Tween-80) 107 % of control.

`O=[N+]([O-])c1ccc(SC2=NCCCN2)c(Cl)c1`: the T/C under setting [4] is 102 % of control, the T/C under setting [5] was 100 % of control and the T/C under setting [6] was 105 % of control.

`CSc1nc(N)c(C(=O)Nc2ccc3ccccc3c2)s1`: the T/C (dose: 50.0 mg/kg/injection, schedule: Q01DX009 (ip), vehicle: Klucel (hydroxypropylcellulose) (HPC)) is 107 % of control; the T/C (dose: 100.0 mg/kg/injection, schedule: Q01DX009 (ip), vehicle: Klucel (hydroxypropylcellulose) (HPC)) was 98 % of control; the T/C (dose: 200.0 mg/kg/injection, schedule: Q01DX009 (ip), vehicle: Klucel (hydroxypropylcellulose) (HPC)) was 99 % of control.

As to `Nc1c2c(=O)[nH]c(=O)c2c(N)c2c(=O)c3ccccc3c(=O)c12`, the T/C was 103 % of control (dose: 60.0 mg/kg/injection, schedule: Q01DX005 (ip), vehicle: saline); 104 % of control (dose: 120.0 mg/kg/injection, schedule: Q01DX005 (ip), vehicle: saline); 105 % of control (dose: 240.0 mg/kg/injection, schedule: Q01DX005 (ip), vehicle: saline).

As to `COc1ccc2nc3cc(Cl)ccc3c(NCCCC3CCCN4CCCCC34)c2c1` (centres undefined), the T/C is, setting by setting: (dose: 7.5 mg/kg/injection, schedule: Q01DX005 (ip), vehicle: saline with Tween-80) 108 % of control; (dose: 15.0 mg/kg/injection, schedule: Q01DX005 (ip), vehicle: saline with Tween-80) 108 % of control; (dose: 30.0 mg/kg/injection, schedule: Q01DX005 (ip), vehicle: saline with Tween-80) 111 % of control.

In the case of `C=C1C(C(=O)OC)=NNc2c(C(N)=O)ncn21`, the T/C is 101 % of control (dose: 25.0 mg/kg/injection, schedule: Q01DX001 (ip), vehicle: saline); 102 % of control (dose: 50.0 mg/kg/injection, schedule: Q01DX001 (ip), vehicle: saline); 98 % of control (dose: 100.0 mg/kg/injection, schedule: Q01DX001 (ip), vehicle: Klucel (hydroxypropylcellulose) (HPC)); 105 % of control (dose: 200.0 mg/kg/injection, schedule: Q01DX001 (ip), vehicle: Klucel (hydroxypropylcellulose) (HPC)); 100 % of control (dose: 400.0 mg/kg/injection, schedule: Q01DX001 (ip), vehicle: saline).

With `O=C1CSC(c2c(Cl)cccc2Cl)N1c1nncs1` (centres undefined), the T/C by setting is: under setting [1], 111 % of control; under setting [2], 102 % of control; under setting [3], 98 % of control.

In the case of `O=C1CCCCC(=O)CS(=O)(=O)C1`, the T/C reads like this: under setting [4], 110 % of control; under setting [5], 107 % of control; under setting [6], 103 % of control.
